# System: LG0567-F671-PDC complex spheroids viability
# Assay: Anticancer human tumor LG0567-F671-PDC patient-derived lung adenocarcinoma cell line growth inhibition [RAS]
# Conditions: for IC50: curve of first compound; for viability, T/C: stronger effect = lower value
# Procedure, shortened: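 Tumour cells grown as complex spheroids with HUVEC endothelial cells and mesenchymal stem cells, treated with RAS pathway inhibitor combinations. Each agent spans half-log steps from near clinical Cmax, or 10 microM where Cmax is unknown.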
# [1] = second compound 0.00316 µM, first compound 0.0316 µM
# [2] = second compound 0.00316 µM, first compound 0.1 µM
# [3] = second compound 0.00316 µM, first compound 0.316 µM
# [4] = second compound 0.00316 µM, first compound 1 µM
# [5] = second compound 0.00316 µM, first compound 3.16 µM
# [6] = second compound 0.00316 µM, first compound 10 µM
# [7] = second compound 0.01 µM, first compound 0.0316 µM
# [8] = second compound 0.01 µM, first compound 0.1 µM
# [9] = second compound 0.01 µM, first compound 0.316 µM
# [10] = second compound 0.01 µM, first compound 1 µM
# [11] = second compound 0.01 µM, first compound 3.16 µM
# [12] = second compound 0.01 µM, first compound 10 µM
# [13] = second compound 0.0316 µM, first compound 0.0316 µM
# [14] = second compound 0.0316 µM, first compound 0.1 µM
# [15] = second compound 0.0316 µM, first compound 0.316 µM
# [16] = second compound 0.0316 µM, first compound 1 µM
# [17] = second compound 0.0316 µM, first compound 3.16 µM
# [18] = second compound 0.0316 µM, first compound 10 µM
# [19] = second compound 0.1 µM, first compound 0.0316 µM
# [20] = second compound 0.1 µM, first compound 0.1 µM
# [21] = second compound 0.1 µM, first compound 0.316 µM
# [22] = second compound 0.1 µM, first compound 1 µM
# [23] = second compound 0.1 µM, first compound 3.16 µM
# [24] = second compound 0.1 µM, first compound 10 µM
# [25] = second compound 0.316 µM, first compound 0.0316 µM
# [26] = second compound 0.316 µM, first compound 0.1 µM
# [27] = second compound 0.316 µM, first compound 0.316 µM
# [28] = second compound 0.316 µM, first compound 1 µM
# [29] = second compound 0.316 µM, first compound 3.16 µM
# [30] = second compound 0.316 µM, first compound 10 µM
# [31] = second compound 1 µM, first compound 0.0316 µM
# [32] = second compound 1 µM, first compound 0.1 µM
# [33] = second compound 1 µM, first compound 0.316 µM
# [34] = second compound 1 µM, first compound 1 µM
# [35] = second compound 1 µM, first compound 3.16 µM
# [36] = second compound 1 µM, first compound 10 µM
# 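Further: spheroids exposed to compound for seven days before readout.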
# 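Wherever IC50 is given: luminescence signal used as a proxy for viable cells.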
compound,measurement,setting,value
CC1(O)CCCC1n1c(=O)c(C(F)F)cc2cnc(NC3CCN(S(C)(=O)=O)CC3)nc21 (stereo unspecified) + C=CC(=O)N1CCN(c2nc(OCC3CCCN3C)nc3c(F)c(-c4nc(N)cc(C)c4C(F)(F)F)c(Cl)cc23)C(C)C1,IC50,second compound 0.00316 µM,< 31.6 nM
same,IC50,second compound 0.01 µM,< 31.6 nM
same,IC50,second compound 0.0316 µM,< 31.6 nM
same,IC50,second compound 0.1 µM,< 31.6 nM
same,IC50,second compound 0.316 µM,< 31.6 nM
same,IC50,second compound 1 µM,< 31.6 nM
same,"viability, T/C",[1],20.1%
same,"viability, T/C",[2],16.5%
same,"viability, T/C",[3],20.5%
same,"viability, T/C",[4],23.8%
same,"viability, T/C",[5],20.7%
same,"viability, T/C",[6],14%
same,"viability, T/C",[7],16.5%
same,"viability, T/C",[8],15%
same,"viability, T/C",[9],16.2%
same,"viability, T/C",[10],19.1%
same,"viability, T/C",[11],20.6%
same,"viability, T/C",[12],15.1%
same,"viability, T/C",[13],13.8%
same,"viability, T/C",[14],12.9%
same,"viability, T/C",[15],17.8%
same,"viability, T/C",[16],18.3%
same,"viability, T/C",[17],17.6%
same,"viability, T/C",[18],13.4%
same,"viability, T/C",[19],12.7%
same,"viability, T/C",[20],13.8%
same,"viability, T/C",[21],15%
same,"viability, T/C",[22],17.8%
same,"viability, T/C",[23],17.4%
same,"viability, T/C",[24],13.3%
same,"viability, T/C",[25],14.5%
same,"viability, T/C",[26],15%
same,"viability, T/C",[27],16.6%
same,"viability, T/C",[28],17.1%
same,"viability, T/C",[29],15.8%
same,"viability, T/C",[30],13.1%
same,"viability, T/C",[31],16.2%
same,"viability, T/C",[32],15.3%
same,"viability, T/C",[33],17.7%
same,"viability, T/C",[34],19.8%
same,"viability, T/C",[35],19.6%
same,"viability, T/C",[36],12.4%
CCN1CCN(Cc2ccc(Nc3ncc(F)c(-c4cc(F)c5nc(C)n(C(C)C)c5c4)n3)nc2)CC1 + C=CC(=O)N1CCN(c2nc(OCC3CCCN3C)nc3c(F)c(-c4nc(N)cc(C)c4C(F)(F)F)c(Cl)cc23)C(C)C1,IC50,second compound 0.00316 µM,< 3.16 nM
same,IC50,second compound 0.01 µM,< 3.16 nM
same,IC50,second compound 0.0316 µM,< 3.16 nM
same,IC50,second compound 0.1 µM,< 3.16 nM
same,IC50,second compound 0.316 µM,< 3.16 nM
same,IC50,second compound 1 µM,< 3.16 nM
same,"viability, T/C","second compound 0.00316 µM, first compound 0.00316 µM",16.6%
same,"viability, T/C","second compound 0.00316 µM, first compound 0.01 µM",14.9%
same,"viability, T/C",[1],13.7%
same,"viability, T/C",[2],14.2%
same,"viability, T/C",[3],16.6%
same,"viability, T/C",[4],22%
same,"viability, T/C","second compound 0.01 µM, first compound 0.00316 µM",13.5%
same,"viability, T/C","second compound 0.01 µM, first compound 0.01 µM",14.1%
same,"viability, T/C",[7],14.4%
same,"viability, T/C",[8],11.8%
same,"viability, T/C",[9],14.9%
same,"viability, T/C",[10],20.2%
same,"viability, T/C","second compound 0.0316 µM, first compound 0.00316 µM",14.8%
same,"viability, T/C","second compound 0.0316 µM, first compound 0.01 µM",13.1%
same,"viability, T/C",[13],11.7%
same,"viability, T/C",[14],12.4%
same,"viability, T/C",[15],14.3%
same,"viability, T/C",[16],21.2%
same,"viability, T/C","second compound 0.1 µM, first compound 0.00316 µM",11.7%
same,"viability, T/C","second compound 0.1 µM, first compound 0.01 µM",11.5%
same,"viability, T/C",[19],12.4%
same,"viability, T/C",[20],11.5%
same,"viability, T/C",[21],15%
same,"viability, T/C",[22],18.1%
same,"viability, T/C","second compound 0.316 µM, first compound 0.00316 µM",12.7%
same,"viability, T/C","second compound 0.316 µM, first compound 0.01 µM",13.1%
same,"viability, T/C",[25],11.9%
same,"viability, T/C",[26],11.3%
same,"viability, T/C",[27],13.8%
same,"viability, T/C",[28],17.2%
same,"viability, T/C","second compound 1 µM, first compound 0.00316 µM",13.4%
same,"viability, T/C","second compound 1 µM, first compound 0.01 µM",14.9%
same,"viability, T/C",[31],12.6%
same,"viability, T/C",[32],13.7%
same,"viability, T/C",[33],16.1%
same,"viability, T/C",[34],20.9%
C[C@@H](NC(=O)c1ncnc(N)c1Cl)c1ncc(C(=O)Nc2cc(C(F)(F)F)c(Cl)cn2)s1 + C=CC(=O)N1CCN(c2nc(OCC3CCCN3C)nc3c(F)c(-c4nc(N)cc(C)c4C(F)(F)F)c(Cl)cc23)C(C)C1,IC50,second compound 0.00316 µM,< 31.6 nM
same,IC50,second compound 0.01 µM,< 31.6 nM
same,IC50,second compound 0.0316 µM,< 31.6 nM
same,IC50,second compound 0.1 µM,< 31.6 nM
same,IC50,second compound 0.316 µM,< 31.6 nM
same,IC50,second compound 1 µM,< 31.6 nM
same,"viability, T/C",[1],23%
same,"viability, T/C",[2],21.9%
same,"viability, T/C",[3],19.2%
same,"viability, T/C",[4],25.3%
same,"viability, T/C",[5],27.4%
same,"viability, T/C",[6],22.3%
same,"viability, T/C",[7],18.3%
same,"viability, T/C",[8],16.7%
same,"viability, T/C",[9],24.5%
same,"viability, T/C",[10],19.2%
same,"viability, T/C",[11],22.8%
same,"viability, T/C",[12],20.4%
same,"viability, T/C",[13],17.1%
same,"viability, T/C",[14],17.3%
same,"viability, T/C",[15],19.1%
same,"viability, T/C",[16],19.3%
same,"viability, T/C",[17],20.1%
same,"viability, T/C",[18],18%
same,"viability, T/C",[19],16.3%
same,"viability, T/C",[20],14.9%
same,"viability, T/C",[21],15.8%
same,"viability, T/C",[22],18.3%
same,"viability, T/C",[23],19%
same,"viability, T/C",[24],18.5%
same,"viability, T/C",[25],15.5%
same,"viability, T/C",[26],16.1%
same,"viability, T/C",[27],16.2%
same,"viability, T/C",[28],18.5%
same,"viability, T/C",[29],22.2%
same,"viability, T/C",[30],23%
same,"viability, T/C",[31],16.7%
same,"viability, T/C",[32],17.4%
same,"viability, T/C",[33],20.4%
same,"viability, T/C",[34],17.2%
same,"viability, T/C",[35],19.8%
same,"viability, T/C",[36],20.8%
